Data taken from patent publication US10653617B2, “Compositions of additives to ginger-curcumin to facilitate growth of fibroblasts and collagen” (priority 2016, dated 2020).

How the values were obtained:
Human dermal fibroblasts [1] = settings: cited from earlier work
Human dermal fibroblasts [2] = test: Fibroblast cytotoxicity assay; assay type: cell-based; settings: 72 hours; for growth-inhibition/cytotoxicity of the individual agent: agent tested individually over a wide range of concentrations; for concentration up to which non-toxic (all concentrations evaluated): agent tested individually, KBM, 1.5 mM calcium
Experimental: Human dermal fibroblasts were isolated from skin biopsies and grown in monolayer culture using DMEM supplemented with 10% fetal bovine serum as culture medium. Growth was at 37° C. in a humidified atmosphere containing 5% CO2 and 95% air. For experimental studies, cells were plated at 5×10^4 cells per well in wells of a 24-well culture dish in the same culture medium. One day later, cells were washed and the DMEM culture medium was replaced with KBM. Human dermal fibroblasts were treated with culture medium (KBM) supplemented with a concentration of calcium (1.5 mM) that supports fibroblast survival on its own. Reagents to be tested for cytotoxicity and/or growth inhibition were included in the culture medium and the cells incubated for 72 hours.

Compound | growth-inhibition/cytotoxicity of the individual agent (Human dermal fibroblasts [2]) | concentration up to which non-toxic (all concentrations evaluated) (Human dermal fibroblasts [2]) | further results
CC1=C(/C=C/C(C)=C/C=C/C(C)=C/C(=O)O)C(C)(C)CCC1 [ATRA, all-trans retinoic acid] |  |  | concentrations that are effective in this assay (Human dermal fibroblasts [1]): 1 to 10 µM
COc1cc(/C=C/C(=O)CC(=O)/C=C/c2ccc(O)c(OC)c2)ccc1O [curcumin] | levels that produced growth-inhibition/cytotoxicity were achieved |  | 
CS(C)(=O)=O [MSM, dimethyl sulfone] | levels that produced growth-inhibition/cytotoxicity were achieved |  | 
hyaluronan |  | ≤ 20000 ng/mL | 
CCCCCCCCCCCCOS(=O)(=O)[O-].[Na+] [SLS, sodium lauryl sulfate] | levels that produced growth-inhibition/cytotoxicity were achieved |  | 
O=C1O[C@H]([C@@H](O)CO)C(O)=C1O [L-ascorbic acid] |  | up to 200 μg/mL | 
